Measured values taken from US11382946B2, “Multi-functional peptides and use thereof” (NOVACELL TECHNOLOGY INC., priority 2019, dated 2022).
Non-standard residues stand in square brackets, D forms with d. Residues, ends and D or L forms follow the SMILES beside them. 2Nal = N[C@@H](Cc1ccc2ccccc2c1)C(=O)O; Nle = CCCC[C@H](N)C(=O)O

How the values were obtained:
FPR2 = molecular target: T1, FPR2 (Homo sapiens, UniProt P25090); test: FPR2 activation by intracellular calcium ion increase (Fura-2/AM) in FPR2-RBL cells; type: cell-based; details: RBL cells overexpressing FPR2
T1 construct: expressed in transfected cells; host or cells: RBL cells overexpressing FPR2 (FPR2-RBL)
T1 sequence (P25090 1-351): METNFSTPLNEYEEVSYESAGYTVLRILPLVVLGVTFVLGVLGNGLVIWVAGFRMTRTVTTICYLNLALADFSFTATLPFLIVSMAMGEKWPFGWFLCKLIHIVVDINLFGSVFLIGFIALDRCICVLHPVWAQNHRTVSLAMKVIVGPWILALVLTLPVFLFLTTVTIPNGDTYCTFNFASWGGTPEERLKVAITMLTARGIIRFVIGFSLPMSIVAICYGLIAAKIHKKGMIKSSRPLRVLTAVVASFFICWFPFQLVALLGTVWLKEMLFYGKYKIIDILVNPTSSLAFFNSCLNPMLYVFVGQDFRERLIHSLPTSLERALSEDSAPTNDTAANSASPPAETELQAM
Experimental: The present inventors observed a change in calcium ion permeability of the candidate peptides according to an embodiment of the present invention in order to determine whether they can activate the immunomodulatory function in a body or not. Particularly, intracellular concentration of calcium ions was measured to confirm that the peptide activates FPR2. RBL cells that do neither express FPR1 nor FPR2, RBL cells overexpressed FPR1 (FPR1-RBL) and RBL cells that overexpressed FPR2 (FPR2-RBL) were used and Fura-2/AM which is a fluorophore having high binding affinity to calcium in order to measure intracellular calcium ion level sensitively. For this purpose, cells were cultured in RPMI medium supplemented with 10% fetal bovine serum and harvested by centrifugation in log phase (mid-log phase, 1-3×10^7 cells/ml), and then washed several times with RPMI medium not supplemented with fetal bovine serum, and then the cells were resuspended in RPMI medium to 1×10^7 cells/ml. Subsequently, a final 3 μM concentration of Fura-2/AM was added and the cells were incubated for 45 minutes in a 37° C., 5% CO2 incubator. After the appropriated time, the cells are harvested, washed again with RPMI medium, and then suspended in the appropriate amount of RPMI medium supplemented with 250 μM of sulfinpyrazone, in order to prevent loss of Fura-2 entering the cells. About 2×10^6 cells were taken each time, harvested by rapid centrifugation, and resuspended in 1 ml of a Locke solution without addition of calcium ions and EGTA added, and the ratio of absorbance at two wavelengths of 340 nm and 380 nm on a spectrophotometer were monitored by treating the peptides according to an embodiment of the present invention at different concentrations (1 μM, 0.1 μM, and 0.01 μM) at intervals of about 1 minute, and then the difference in absorbance at two wavelengths was investigated. It was converted to the concentration of free calcium ions into cells according to the method of Grynkiewicz.

S. aureus = type: cell-based, Staphylococcus aureus; details: 18 h
Experimental: (§1) The present inventors evaluated […] in order to select peptides showing excellent performance among various peptides synthesized in the Example 1. Particularly, in order to measure the antimicrobial activity of the peptide, after preparing Gram-positive bacteria Staphylococcus aureus (S. aureus) and Gram-negative bacteria Pseudomonas aeruginosa (P. aeruginosa), the bacteria were plated on agar plate medium by fourth streaking and cultured overnight in a 36° C. incubator. The next day, the strain colonies produced on the agar plate medium were inoculated into 3 ml nutrient medium and cultured overnight in a stirring incubator at 36° C. and 220 rpm. The next day, the bacteria were diluted to measure absorbance at 600 nm, adjusted to OD600=0.5, and diluted in a 1:100 ratio in nutrient medium. Then, the peptides prepared in the above Examples were serially diluted in concentrations of 0, 1.25, 2.5, 5, 10, and 20 μM in a nutrient medium to prepare 1 ml each, and then inoculated with 1 ml of the diluted bacteria. Subsequently, the mixture was stirred under conditions of 36° C. and 220 rpm, and incubated for 18 hours, and absorbance at 600 nm was measured.
(§2) As a result, 20 peptides showing high antibacterial activity against P. aeruginosa and S. aureus) were selected (FIGS. 2 and 3).

P. aeruginosa = type: cell-based, Pseudomonas aeruginosa; details: 18 h
Experimental: as §1, §2

EC50 (FPR2)	Antimicrobial activity (IC50, μg/ml) S. aureus (S. aureus)	Antimicrobial activity (IC50, μg/ml) P. aeruginosa (P. aeruginosa)	Compound
61.3 nM	13.3 µg/mL	>50 µg/mL	CCCC[C@H](NC(=O)[C@H](CCCNC(=N)N)NC(=O)[C@H](Cc1c[nH]c2ccccc12)NC(=O)[C@H](Cc1c[nH]c2ccccc12)NC(=O)[C@H](CCCNC(=N)N)NC(=O)[C@H](Cc1ccc2ccccc2c1)NC(C)=O)C(=O)N[C@@H](Cc1c[nH]c2ccccc12)C(=O)N[C@@H](Cc1c[nH]c2ccccc12)C(=O)N[C@@H](CCCNC(=N)N)C(=O)N[C@@H](Cc1c[nH]c2ccccc12)C(=O)N[C@H](CCSC)C(N)=O [Peptide V23_Ac, Ac-ZRWWR-Nle-WWRWm-NH2] (Ac-[2Nal]RWWR[Nle]WWRW[dM]-NH2)
58.6 nM	24.0 µg/mL	47.8 µg/mL	CSCC[C@@H](NC(=O)[C@H](Cc1c[nH]c2ccccc12)NC(=O)[C@H](CCCNC(=N)N)NC(=O)[C@H](Cc1c[nH]c2ccccc12)NC(=O)[C@H](Cc1c[nH]c2ccccc12)NC(=O)[C@H](CCCNC(=N)N)NC(=O)[C@H](CCCNC(=N)N)NC(C)=O)C(N)=O [Peptide V24_Ac, Ac-RRWWRWm-NH2] (Ac-RRWWRW[dM]-NH2)
